Assay results taken from ChEMBL document CHEMBL1141806, “Gloeolactone, a New Epoxy Lactone from a Blue-Green Alga” (J Nat Prod, 1998).
The source made the active and inactive calls. No cut-off for these calls is given here.

Key:
Vibrio harveyi = assay: Antimicrobial activity against Vibrio harveyi; type: functional, organism-based
[1] = Toxicity against brine shrimp at 125 ug/mL; type: organism-based; conditions: artemia, in vivo; read-out: Activity

In the case of CC/C=C\C[C@H]1O[C@@H]1/C=C/C1CCCCCCCC(=O)O1 (some centres not stated) [GLOEOLACTONE], the Activity (Vibrio harveyi) is reported as “inactive” and the mortality at 125 ug/mL [1] is reported as 100%.
